Key:
Format in all cases: functional, Mesocricetus auratus
[1] = system: Syrian golden hamster; test: Lowering of total cholesterol level in dyslipidemic male syrian hamsters at 50 mg/kg, po
[2] = system: Syrian golden hamster; test: Lowering of free fatty acids in dyslipidemic male syrian hamsters at 50 mg/kg, po
[3] = system: Syrian golden hamster; test: Lowering of plasma triglyceride level in dyslipidemic male syrian hamsters at 50 mg/kg, po
[4] = system: Syrian golden hamster; test: Increase in HDL-cholesterol in dyslipidemic male syrian hamsters at 50 mg/kg, po
[5] = system: Syrian golden hamster; test: Lowering of glycerol in dyslipidemic male syrian hamsters at 50 mg/kg, po
[6] = system: Syrian golden hamster; test: Increase in ratio between HDL-cholesterol and total cholesterol in dyslipidemic male syrian hamsters at 50 mg/kg, po

C[C@@H]([C@H](C)O)[C@H](N)C(=O)O
Activity [1]: 22% | Activity [2]: 14% | Activity [3]: 33% | Activity [4]: 8.7% | Activity [5]: 4.9% | Ratio [6]: 39%

Reference: ChEMBL document CHEMBL1147758, “4-hydroxyisoleucine an unusual amino acid as antidyslipidemic and antihyperglycemic agent” (2006)
